How the values were obtained:
untransfected cells = assay: Fluo-4 calcium assay in untransfected HEK293 cells; assay type: cell-based, human; settings: untransfected cells (data not shown)
MRGPRX2 receptor = biological target: T1, MRGPRX2 receptor (Homo sapiens, UniProt Q96LB1); assay: Fluo-4 calcium assay in MRGPRX2 expressing Chem-1 cells; assay type: cell-based; settings: Chem-1 cells, Fluo-4
T1 construct: host or cells: Chem-1 cells (G418-selected)
T1 sequence (Q96LB1 1-330): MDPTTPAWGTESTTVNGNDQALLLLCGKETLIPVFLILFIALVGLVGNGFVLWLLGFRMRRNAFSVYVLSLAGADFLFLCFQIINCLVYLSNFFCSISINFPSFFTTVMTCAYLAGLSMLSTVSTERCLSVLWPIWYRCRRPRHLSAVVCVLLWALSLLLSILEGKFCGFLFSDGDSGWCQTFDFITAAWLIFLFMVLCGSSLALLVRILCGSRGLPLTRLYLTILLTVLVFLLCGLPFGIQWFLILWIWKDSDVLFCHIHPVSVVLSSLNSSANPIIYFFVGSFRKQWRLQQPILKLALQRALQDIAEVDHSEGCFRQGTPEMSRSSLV

mouse ortholog Mrgprb2 = mouse ortholog Mrgprb2 (Mus musculus, UniProt Q3KNA1); settings: HEK293 cells transfected with mouse ortholog Mrgprb2
Experimental: (§1) A clonal HEK293 cell line stably expressing human MRGPRX2 and Galpha15 was used for the assay, which was performed using a fluorescent plate reader. Cells were plated at 40,000 cells per well in a glass-bottom 96 well plate 20 hours before the assay. Cells were loaded with N-[4-[6-[(Acetyloxy)methoxy]-2,7-difluoro-3-oxo-3H-xanthen-9-yl]-2-[2-[2-[bis[2-[(acetyloxy)methoxy]-2-oxoethyl]amino]-5-methylphenoxy]ethoxy]phenyl]-N-[2-[(acetyloxy)methoxy]-2-oxoethyl]glycine (acetyloxy)methyl ester (Fluo-4 AM) for 45 minutes at 37° C. and allowed to rest for 30 minutes before use. Baseline fluorescence was calculated as the average of a 30 second read, with data points taken at 5 second intervals. Response was defined as the maximum signal within 90 seconds after addition of elamipretide, subtracted by the baseline fluorescence signal. Concentrations were tested in duplicate and the assay was run 6 times. The curve was calculated as a four-parameter non-linear fit with variable slope. Traces were obtained using the same cell line and same Fluo-4 AM loading protocol but were imaged using a fluorescence microscope using a standard fluorescein isothiocyanate (FITC) filter. Fluorescence for different cells was calculated using region of interest selections.
A calcium-based readout of receptor activity was used to determine whether elamipretide activates human MRGPRX2 and its mouse ortholog Mrgprb2. […]

[1] = test system: Mouse primary peritoneal mast cells; assay: Mast cell activation (Fluo-4 calcium imaging); assay type: cell-based; settings: 500 micrograms/mL elamipretide
Experimental: Mouse primary peritoneal mast cells were isolated from wild type and Mrgprb2 knockout mice. Mast cells were incubated in Dulbecco's Modified Eagle Medium, supplemented with 10% fetal bovine serum and 100 ng/mL human stem cell factor for 2 hours in wells of a glass-bottom 96 well plate that had been previously coated with fibronectin. […] A confocal fluorescence microscope was used to assess changes in free intracellular calcium levels in each mast cell in a visual field, as measured by changes in Fluo-4 fluorescence using a standard FITC filter, reflecting responsiveness to elamipretide. Cells were identified as responding if the Fluo-4 signal rose by at least 50% for at least 10 seconds, which clearly distinguishes a ligand-induced response from random flickering events.
Injection site reactions induced by several classes of drugs were mediated in mice by Mrgprb2-dependent activation of mast cells. Whether elamipretide activated primary mouse connective tissue mast cells was evaluated, and if so, it was evaluated whether this was Mrgprb2-dependent. […] Briefly, primary connective tissue mast cells were purified from mice, loaded with Fluo-4, and changes in fluorescence after elamipretide exposure were imaged. T fluorescence of over 200 individual mast cells, each from wild type and Mrgprb2 knockout mice, were monitored and the percentage of total cells that responded was determined.

human MRGPRX2 = human MRGPRX2 (Homo sapiens, UniProt Q96LB1); assay: cell-based
Experimental: as §1
A calcium-based readout of receptor activity was used to determine whether elamipretide activates human MRGPRX2 and its mouse ortholog Mrgprb2. This assay is known to be widely used in drug screening and utilized a cell line stably transfected with the receptor along with Galpha15, a promiscuous G protein that couples to the receptor and induced an increase in intracellular calcium when the receptor was activated. Thus, an increase in calcium levels reflected receptor activation. Calcium levels were detected by imaging Fluo-4 (from Fluo-4 AM), a dye that increases in fluorescence when bound to calcium.

mouse ortholog Mrgprb2, sequence (Q3KNA1 whole entry): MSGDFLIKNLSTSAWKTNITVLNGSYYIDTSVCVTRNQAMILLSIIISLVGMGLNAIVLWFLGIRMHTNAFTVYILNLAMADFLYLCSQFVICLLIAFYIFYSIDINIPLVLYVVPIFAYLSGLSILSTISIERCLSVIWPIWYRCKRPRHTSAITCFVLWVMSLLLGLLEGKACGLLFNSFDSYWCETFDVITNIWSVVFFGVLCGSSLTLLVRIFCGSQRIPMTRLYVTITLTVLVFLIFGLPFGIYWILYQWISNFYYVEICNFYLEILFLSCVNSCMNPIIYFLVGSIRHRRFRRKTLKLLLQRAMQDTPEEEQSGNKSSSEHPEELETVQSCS

Compound: Cc1cc(O)cc(C)c1C[C@H](NC(=O)[C@H](N)CCCNC(=N)N)C(=O)N[C@@H](CCCCN)C(=O)N[C@@H](Cc1ccccc1)C(N)=O (stereo in doubt) [Elamipretide, H-D-Arg-2′,6′Dmt-Lys-Phe-NH2]
- Fluo-4 fluorescence after elamipretide exposure (untransfected cells): not in untransfected cells
- activation of the MRGPRX2 expressing cells (calcium mobilization) (MRGPRX2 receptor): dose dependent activation
- Fluo-4 fluorescence after elamipretide exposure (mouse ortholog Mrgprb2): increased
- intracellular calcium response of mast cells ([1]; mast cells from Mrgprb2 knockout mice): almost no responses
- intracellular calcium response of mast cells ([1]; wild-type mast cells): Robust increases in intracellular calcium
- EC50 (human MRGPRX2): 98.5 µM
- EC50 relative to the typical elamipretide injection concentration of 40 mg/mL (times lower) (human MRGPRX2): ~600 times
- Fluo-4 fluorescence after elamipretide exposure (human MRGPRX2; HEK293 cells transfected with MRGPRX2): increased

From patent US20240299486A1, “ADDRESSING INJECTION SITE REACTIONS ASSOCIATED WITH THE ADMINISTRATION OF ELAMIPRETIDE” (STEALTH BIOTHERAPEUTICS INC., priority 2022, published 2024)
